Reference: patent EP0418113A2, “Microbiological assay kit and method for detecting antibacterial compounds” (ORGENICS LIMITED, priority 1989, dated 1991)
Where “and” joins values, the source holds several entries; their conditions need not be identical. Identical values can stand only once.

Tests used:
[1] = test system: Strep. thermophilus cells; assay: Visual antibiotic assay in milk with lyophilized bacteria subjected to osmotic changes (MTT colour); assay type: cell-based, Streptococcus thermophilus (ATCC 14485)
Description: Keep cold until use. • (b) To each 1 mL milk specimen or controls add 0.053 gr glucose and 0.1 mL of rehydrated bacterial suspension obtained in (a) above. Mix and incubate at 42°C for 25 min. • (c) Add 2 mL of a chromogenic mixture, containing 0.5 % glucose and 0.175 mg/mL MTT in water to each of the specimens and controls. Mix and incubate for 5 min at 42°C. • (d) Visually examine the color of each specimen and compare it to the color of the control. A color density lower than the color of the control indicates antibiotic activity in the specimen. Table 5 below summarizes the sensitivity of the visual assay for various antibiotic drugs, added to antibiotic free milk specimens.

[2] = test system: B. stearothermophilus (ATCC 10149) cells; assay: Inhibition of MTT colour formation in B. stearothermophilus after pre-incubation in isotonic or hypertonic medium (Tryptic Soy broth); assay type: cell-based, Bacillus stearothermophilus; settings: specimen containing 40 mIU/mL Penicillin G
Description: Logarithmic B. stearothermophilus (ATCC 10149) cells were suspended in Difco Tryptic Soy broth with or without 0.8M sucrose, and incubated at 55°C with shaking for 1 hr. […] Control reaction mixture was constructed with bacterial suspension and Tryptic Soy broth. Following a 30 min incubation at 55°C, all reaction mixtures were diluted 1:5 into […] MTT, 0.5 glucose in water and incubation continued for 5 minutes. The color suspension was clarified by vigorously mixing 0.5 mL aliquots with 0.7 mL isoamyl alcohol containing 0.04N hydrochloric acid. The optical density of the clarified mixtures was measured at 570 nm and the inhibition of color formation, relative to the control was calculated and is presented in Table 7.

[3] = test system: Strep. thermophilus cells; assay: Detection of Penicillin G in milk by inhibition of MTT reduction in Strep. thermophilus cells, butanol extraction, OD 570 nm; assay type: cell-based, Streptococcus thermophilus (ATCC 14485); settings: isotonic MTT solution (0.3M sucrose); Penicillin concentration 4; lyophilized cells
[4] = test system: B. stearothermophilus ATCC 10149; assay: Detection of Penicillin G in milk with B. stearothermophilus cells (MTT reduction); assay type: cell-based, Bacillus stearothermophilus; settings: 30 min at 55°C + 10 min MTT
Description: The whole reaction mixture is filtered through glass filter paper circles (e.g. Whatman GF/F, 2.5 cm diameter). The color can be estimated visually or measured by a reflecting densitometer, such as Gretag D182 (Gretag Ltd., CH-8105 Regensdorf, Switzerland). • (a) Inoculate B. stearothermophilus ATCC 10149 into a liquid medium constructed from 10 % Difco skim milk and 0.5 % Difco yeast extract in water. Incubate at 55°C with constant (shaking) for 18 hrs. • (b) Dilute the overnight culture 1:20 into fresh liquid medium and continue shaking at 55°C for 2 hrs. • (c) Dilute 1:10 into liquid medium fortified with 0.8M sucrose and continue shaking at 55°C for 2.5 hrs. […] Use immediately or keep on ice until ready to continue. • (d) Mix each Penicillin containing milk specimen with an equal volume of B. stearothermophilus suspension, as obtained in Step (c). Shake for 30 minutes at 55°C. • (e) Add MTT solution, as described in Example 2 (d) and continue shaking for 10 minutes at 55°C. • (f) Determine the amount of MTT dye as described in Example 3(b).

[5] = test system: Strep. thermophilus cells; assay: Detection of Penicillin G in milk by inhibition of MTT reduction in Strep. thermophilus cells, butanol extraction, OD 570 nm; assay type: cell-based, Streptococcus thermophilus (ATCC 14485)
Description: • (a) Streak Streptococcus thermophilus (ATCC 14485) suspension on solid medium, comprising 10 % Difco skim milk, 0,5 % Difco yeast extract, 2 % Agar in distilled water. Distinct colonies should emerge after overnight incubation at 42°C. • (b) Suspended a colony in 10 mL of a liquid medium, comprising 10 % Difco skim milk and 0.5 % Difco yeast extract in water (medium A). Incubate the suspension overnight at 42°C in 12 mL plastic, disposable centrifuge test tubes. • (c) Dilute the resultant suspension 1:10 into medium A and incubate at 42°C until the pH of the medium drops to 5.0 (about 2hrs). The resulting viable cell concentration is 1-2x10⁸/1mL. • (d) Cell concentration can be increased by adding 1N NaOH solution until the pH is raised to 6.2, and continuing incubation at 42°C until the pH drops again to 5.0. This cycle can be repeated 5-7 times until the culture becomes stationary at 1-2x10⁹ cells/mL. • (e) Adjust cell concentration to 1 x 10⁸ cells mL and store at 6-10°C for up to 24 hrs for use in antibiotic assay. Alternatively, distribute 2 mL aliquots of the suspension into 12 mL Penicillin vials (24 x 45 mm), freeze in liquid nitrogen and dry on refrigerated shelves of a stoppering, programmable lyophilizer, employing a 48-72 hour program.
• (a) Add 2 mL of distilled water to each vial of dried Strep. thermophilus cells, prepared as described in Example 1. Freshly grown Strep. thermophilus at 1x10⁸ cells/mL are used without any treatment. • (b) Construct reaction mixtures for the detection of antibiotic activity in milk specimens from 0.4 mL cell suspension (fresh or rehydrated lyophilized), 1.6 mL milk specimen, 0.05 mL 10 % Difco Yeast Extract and 0.05 mL 10 % Difco Tryptose. Include at least one control milk specimen, known not to contain any antibiotic drug, whenever the Antibiotic assay is employed. • (c) Incube the complete antibiotic exposure mixtures of the control and unknown milk specimens for 25 minutes at 42°C. • (d) Upon completion of the incubation mix 0.4 mL aliquots of all reaction mixtures with 1.6 mL of 0.5 % glucose, 0.175 mg/mL MTT (3-[4,5-Dimethylthiazol-2-yl]-2.5 diphenyltetrazolium bromide) in water, and incubate for 5 minutes. The amount of color resulting from MTT reduction can be estimated by one of the methods detailed in Example 3.
Transfer a 0.75 mL aliquot of the reaction mixture to a 2 mL microcentrifuge test tube. Add 0.75 mL 1-Butanol. Agitate on a vortex mixer for 15 seconds. Centrifuge the suspension at 10,000 x g for 2.5 minutes. Transfer 0.6 mL the upper clear, colored phase to a clean microcentrifuge test tube, containing 0.6 mL 1-Butanol. Agitate on a vortex mixer for 15 seconds. Centrifuge the suspension at 10,000 x g for 2.5 minutes. Transfer 1 mL the upper clear, colored phase to a clean cuvette. Determine the color density at 570 nm.
Milk specimens containing 3.5 or 7 mIU/mL of Penicillin G were tested with lyophilized Strep. thermophilus organisms, as described in Example 2. Color development for each antibiotic concentration was carried out either with the MTT solution as described in section (d) of Example 2, which is hypotonic or with the same solution, made isotonic by the addition of sucrose to 0.3M final concentration.
The amount of MTT color produced was determined by measuring the optical density of butanol extract made from the reaction mixtures (example 3 (d)).
Milk specimens containing 1-14 mIU:mL Penicillin G, were tested as described in Example 2 for lyophilized bacteria.
Milk specimens, containing 7 mIU/mL of Penicillin G were tested as described in Example 2 for lyophilized Strep. thermophilus cultivated to high density by pH adjustments. Incubation times of the milk specimens with the indicator bacteria varied between 10 and 25 minutes. Incubation with the MTT solution varied between 5 and 10 minutes. The amount of MTT color produced was determined by measuring the optical density of butanol extract made from the reaction mixtures (example 3 (d)). […]

[6] = added to antibiotic free milk, 25 min at 42°C + 5 min MTT
[7] = Penicillin G Concentration 16 mIU/mL in milk
[8] = Penicillin G Concentration 32 mIU/mL in milk
[9] = Penicillin Concentration 1 mIU/mL, lyophilized cells
[10] = Penicillin Concentration 2 mIU/mL, lyophilized cells
[11] = Penicillin Concentration 4 mIU/mL, lyophilized cells
[12] = Penicillin Concentration 7 mIU/mL, lyophilized cells
[13] = Penicillin Concentration 14 mIU/mL, lyophilized cells
[14] = dried (lyophilized) cells, 7 mIU/mL Penicillin G in milk
[15] = hypotonic MTT solution, Penicillin concentration 4, lyophilized cells
[16] = hypotonic MTT solution, Penicillin concentration 7, lyophilized cells
[17] = isotonic MTT solution (0.3M sucrose), Penicillin concentration 7, lyophilized cells

## Nc1ccc(S(=O)(=O)Nc2ncccn2)cc1 [Sulfadiazine]
[1]; test conducted in presence of 10 ug.mL trimethoprim, added to the milk specimen
  Sensitivity (lowest concentration causing visually detectable decrease in color): 20 ug/mL^b

## Polymyxin
[1]; [6]
  Sensitivity (lowest concentration causing visually detectable decrease in color): 10 µg/mL

## O=C(N[C@H](CO)[C@H](O)c1ccc([N+](=O)[O-])cc1)C(Cl)Cl [Chloramphenicol]
[1]; [6]
  Sensitivity (lowest concentration causing visually detectable decrease in color): 2.5 µg/mL

## CC1(C)S[C@@H]2[C@H](NC(=O)[C@H](N)c3ccccc3)C(=O)N2[C@H]1C(=O)O [Ampicillin]
[1]; [6]
  Sensitivity (lowest concentration causing visually detectable decrease in color): 0.002 µg/mL

## Cc1onc(-c2ccccc2Cl)c1C(=O)N[C@@H]1C(=O)N2[C@@H]1SC(C)(C)[C@@H]2C(=O)O [Cloxacillin]
[1]; [6]
  Sensitivity (lowest concentration causing visually detectable decrease in color): 0.002 µg/mL

## CC1(C)S[C@@H]2[C@H](NC(=O)Cc3ccccc3)C(=O)N2[C@H]1C(=O)O [Penicillin G]
[2]; hypertonic pre-incubation medium (0.8M sucrose)
  % Inhibition with: 54%
[2]; isotonic pre-incubation medium (without sucrose)
  % Inhibition with: 10%
[1]; [6]
  Sensitivity (lowest concentration causing visually detectable decrease in color): 3.5 mIU/mL
[3]
  % inhibition: 3%
[4]; [7]
  % inhibition: 34%
  OD at 570 nm: 0.250
[4]; [8]
  % inhibition: 59%
  OD at 570 nm: 0.155
[5]; 7 mIU/mL Penicillin G, first incubation 10 min, MTT 5 min (total 15 min), lyophilized high-density cells
  Inhibition (%): 7%
[5]; 7 mIU/mL Penicillin G, first incubation 10 min, MTT 10 min (total 20 min), lyophilized high-density cells
  Inhibition (%): 40% and 42%
[5]; 7 mIU/mL Penicillin G, first incubation 15 min, MTT 5 min (total 20 min), lyophilized high-density cells
  Inhibition (%): 21%
[5]; 7 mIU/mL Penicillin G, first incubation 15 min, MTT 10 min (total 25 min), lyophilized high-density cells
  Inhibition (%): 42%
[5]; 7 mIU/mL Penicillin G, first incubation 20 min, MTT 5 min (total 25 min), lyophilized high-density cells
  Inhibition (%): 77%
[5]; 7 mIU/mL Penicillin G, first incubation 20 min, MTT 10 min (total 30 min), lyophilized high-density cells
  Inhibition (%): 53%
[5]; 7 mIU/mL Penicillin G, first incubation 25 min, MTT 5 min (total 30 min), lyophilized high-density cells
  Inhibition (%): 62%
[5]; 7 mIU/mL Penicillin G, first incubation 25 min, MTT 10 min (total 35 min), lyophilized high-density cells
  Inhibition (%): 57%
[5]; [9]
  Inhibition (%): 17%
  OD at 570 nm: 0.098
[5]; [10]
  Inhibition (%): 32%
  OD at 570 nm: 0.080
[5]; [11]
  Inhibition (%): 56%
  OD at 570 nm: 0.052
[5]; [12]
  Inhibition (%): 74%
  OD at 570 nm: 0.031
[5]; [13]
  Inhibition (%): 80%
  OD at 570 nm: 0.024
[5]; [14]
  % inhibition: 60%
  OD 570 nm in 7 mIU/mL Penicillin Specimen: 0.062
[5]; fresh cells, 7 mIU/mL Penicillin G in milk
  % inhibition: 55%
[5]; fresh cells, 7 mIU/mL Penicillin G in milk, 25 min at 42°C + 5 min MTT
  OD 570 nm in 7 mIU/mL Penicillin Specimen: 0.088
[5]; [15]
  % inhibition: 56%
  OD at 570 nm: 0.052
[5]; [16]
  % inhibition: 74%
  OD at 570 nm: 0.031
[5]; isotonic MTT solution (0.3M sucrose), Penicillin concentration 4, lyophilized cells
  OD at 570 nm: 0.113
[5]; [17]
  % inhibition: 34%
  OD at 570 nm: 0.077
[5]; lyophilized cells, butanol extraction, OD 570 nm
  concentration detectable in milk: 1 mIU/mL

## CN(C)[C@@H]1C(O)=C(C(N)=O)C(=O)[C@@]2(O)C(O)=C3C(=O)c4c(O)cccc4[C@@](C)(O)[C@H]3C[C@@H]12 [Tetracycline]
[1]; [6]
  Sensitivity (lowest concentration causing visually detectable decrease in color): 0.2 µg/mL

## CN(C)[C@@H]1C(O)=C(C(N)=O)C(=O)[C@@]2(O)C(O)=C3C(=O)c4c(O)cccc4[C@@](C)(O)[C@H]3[C@H](O)[C@@H]12 [Oxytetracycline]
[1]; [6]
  Sensitivity (lowest concentration causing visually detectable decrease in color): 0.4 µg/mL
